The record followed here is US7629318B2, “Immunosuppressant compounds, methods and uses related thereto” (priority 2002, dated 2009).

Square brackets hold non-standard residues; d marks the D form. Peptide text beside a SMILES is read from it. * marks the point of attachment. Tic = O=C(O)[C@@H]1Cc2ccccc2CN1; Cha = N[C@@H](CC1CCCCC1)C(=O)O; NHPhenethyl = c1ccc(CCN*)cc1; Nle = CCCC[C@H](N)C(=O)O

In data set [1] the test system is T cell activation from 0404(DR14) chimeric MHCII-mice. The data set is described as follows: In vivo inhibition of T cell activation by co-immunisation, DR14 mice immunised with OVA. Details: species or system mouse; % Reduction of response to PPD(OVA): concentration or dose not given beside the values. Particulars: for % Reduction of response to OVA: DR14 mice co-immunised with OVA plus compound, mean % inhibition from the control over 3 concentrations of antigen (6.7, 20 and 60 ug); for % Reduction of response to PPD(OVA): specificity control: response to PPD in the same cell pool, OVA co-immunised mice. The text has this: Mouse strains DR4 and DR14 carry chimeric MHC-II transgenes that encode the N-terminal domains of the respective DR molecules (forming the peptide binding site) and the remaining (2nd extracellular domains, transmembrane and intracytoplasmic domains) of the murine class II molecule I Ed. These strains are deficient of other murine class II, and thus, all helper T cell responses are triggered by peptides presented in the respective human MHC-II binding site. As an initial in vivo test of subject inhibitors designed to bind to DR, DR-transgenic mice were co-immunized with a pre-defined dose of protein antigen and different amounts of the compound antagonist to be tested. In this set-up, both antigen and compound were emulsified together in complete Freund's adjuvant (CFA), and thus, a direct competition between the two components for presentation by DR was tested. Readout of the assay is ex vivo antigen-specific activation of T cells from regional lymph nodes explanted 9 days after co-immunization. In a typical experiment, antigen dose-response was investigated, and the curves from mice immunized with antigen were compared to those from mice co-immunized with antigen+compound. The dose response curves were generated using lymph node cells pooled at equal numbers from 2-3 mice per experimental group. The experimental system also permits assessment of inherent antigenicity of the compound antagonist. This was done by setting up a dose-response study from the same cell pool using different concentrations of the compund under investigation instead of the antigen. As a specificity control, the response to Purified Protein Derivative (PPD), the major protein component of CFA, was tested in the same cell pool.
All Gpg conataining compounds have significant immunosupressive properties in one or both of the in-vivo models. Gpg-containing compounds also show improved activity or improved specificity over the Arg-containing equivilent. Further, compounds according to Formula I show activity in this assay.
Compounds of the invention were injected as an Emulsion prepared using CFA (Bacto Adjuvant Complete H37 Ra, Difco, Order-No. 3113-60); proteins 10 mg/ml in PBS, inhibitors 5 μM in 10% DMSO. CFA, PBS, antigen, and inhibitor were placed in the barrel of a 5-ml syringe (total volume not more than 1 mL). The mixture was sonicated at an amplitude less than 40% (30-35%) for two separated 15 s periods. The emulsion should seem to be hard and not liquid at this point. A drop of emulsion placed on the surface of water should not melt. The resulting emulsion was pushed through the needle into a 1 ml syringe with a needle (Gr.18, 26G×1″), and air bubbles were removed. Mice were co-immunized with 50 μg protein and 210 nM compound antagonist in final 100 μl emulsion into the tail base. Antigen+Compound and CFA are mixed 1:1 vol/vol. The best results are obtained using DR 4 mice immunised with HEL and DR 14 mice immunized with OVA.
Mice were injected at the tail-base as follows: Holding the tail of a mouse with thumb and middle finger, the index finger was placed under the base of the mouse's tail. The needle of the syringe was inserted about 1.5 cm from the tail base (hairy end) under the skin and pushed about 1 cm into the tail. 100 μl emulsion was injected into the mouse. After 9 days, mice were killed and lymph nodes removed.
The inhibitory effect of the candidate compounds on T-cell activation was tested using T-cells and antigen-presenting cells isolated from the lymph nodes of chimeric DR4-IE transgenic mice (Taconic, USA) previously co-immunized with hen egg lysozyme plus compound, or DR14-IE transgenic mice co-immunized with ovalbumin plus compound according to standard procedures (Adorini et al., 1988, Mueller et al., 1990; Current Protocols in Immunology, Vol. 2, 7.21; Ito et al., 1996). […]

For data set [2], the target named is DR4Dw4 (DRA1*0101 DRB1*0401) (Homo sapiens, UniProt P01903+P01911, A100K/A169T/F76Y/I96L/K127E/L162R/M171V/N62H/P40V/Q125Y/R42H/S133A/S149N/S66Y/V115G/V209L/W38E). The data set is described as follows: Competitive binding to MHC-II protein DR4Dw4. Here is the method: (§1) Interaction mixtures lacking the peptidomimetic compound and both peptide mimetic compound and MHC-II were used as positive and negative controls, respectively. All interaction mixtures were set up in duplicates and were incubated for 16 hours at room temperature.
(§2) After washing with PBS, 60 μl of the MHC-II-compound interaction mixtures were transferred from the interaction plate to the appropriate wells of the capture plate and incubated for 2 h at 4° C. The wells were washed six times with 200 μl/well of cooled (4 to 8° C.) 1×DELFIA wash (Wallac-ADL-GmbH, Freiburg), incubated with 100 μl of cooled Europium-streptavidin conjugate (Wallac-ADL-GmbH, Freiburg; diluted 1/1000 with DELFIA assay buffer) for 30 minutes at 4° C., again washed six times with cooled 1×DELFIA wash and, finally, incubated with 200 μl cooled DELFIA enhancement solution (Wallac-ADL-GmbH, Freiburg) for one hour at room temperature before reading the time-resolved europium fluorescence at λex Eu^3+: 340 nm and λem Eu^3+: 613 (615) nm (Wallac Victor^2 1420 Multilabel Counter, Wallac-ADL-GmbH, Freiburg).

The target of data set [3] is Cathepsin B1 (EC 3.4.22.1 from bovine spleen) (Bos taurus, UniProt P07688). The settings on record: Cathepsin B, 4 h.
Data set [4] deals with T-cell proliferation, lymph node cells of chimeric 0401-IE transgenic mice. Particulars: DR4-LN. Here is the method: The compounds were tested as follows to inhibit the proliferative T cell response of antigen-primed lymph node cells from mice carrying a chimeric mouse-human class II transgene with an RA-associated peptide binding site, and lack murine class II molecules (Muller et al., 1990; Woods et al., 1994; Current Protocols in Immunology, Vol. 2, 7.21; Ito et al., 1996). Here, the immunization takes place in vivo, but the inhibition and readout are ex vivo. […] These mice lack murine MHC class II, and thus, all Th responses are channelled through a single human RA-associated MHC class II molecule (Ito et al. 1996). These transgenic mice represent a model for testing human class II antagonists.
1.5×10^5 cells are incubated in 0.2 ml wells of 96-well tissue culture plates in the presence of ovalbumin (30 μg per well—half-maximal stimulatory concentration) and a dilution series of the compound under test (from around 0.1 to 200 uM) in serum free HL-1 medium containing 2 mM L-glutamine and 0.1 g/l Kanamycin for three days. Antigen specific proliferation is measured by 3H-methyl-thymidine (1 μCi/well) incorporation during the last 16 h of culture (Falcioni et al., 1999). Cells are harvested, and 3H incorporation measured using a scintillation counter (TopCount, Wallac Finland).

Data set [5] deals with DR4Dw14 (DRA1*0101 DRB1*0404) (Homo sapiens, UniProt P01903+P01911, A100R/A169T/F76Y/I96L/K127E/L162R/M171V/N62H/P40V/Q125Y/R42H/S133A/S149N/S66Y/V209L/W38E). The data set is described as follows: Competitive binding to MHC-II protein DR4Dw14. The settings on record: 0404; read-out: Protein binding IC50 (nM) 0404. How it is done:
as §1, §2

A short description of data set [6]: Stability of compounds in mouse blood plasma. The data set is classed as in vitro ADME. How it is done: (§3) The stability of the peptidomimetic compounds was determined in rat (Charles River Laboratories, Sulzfeld), mouse (Charles River Laboratories, Sulzfeld) and human (Bayerisches Rotes Kreuz, München) blood plasma (E. R. Garrett and M. R. Gardner, J Pharmaceutical Sciences 71 (1982) 14-25).
(§4) Compound stock solutions were diluted into blood plasma to give a final compound concentration of 5 μM and the mixtures were incubated at 37° C. At 0, 6 and 24 hours 1 ml samples were drawn and the plasma proteins were precipitated by the addition of 3 ml acetonitrile p.a. and whirlmixing. The precipitate was pelleted by centrifugation at 2000 g for 5 minutes. The supernatant was evaporated off to dryness and the residue was reconstituted in 400 μl 50% acetonitrile, 0.1% TFA in water.
(§5) PBS controls were prepared for unstable compounds accordingly.

The target in data set [7] is DR1 (DRA1*0101 DRB1*0101) (Homo sapiens, UniProt P01903+P01911, A100R/D57E/F55L/F60I/F76Y/I96L/L162R/M171V/P40L/Q125E/R42F/V115G/Y59C). The data set is described as follows: Competitive binding to MHC-II protein DR1. Particulars: Protein binding IC50 (nM) 0101, 0101. Here is the method: as §1, §2
The nature of data set [8]: Stability of compounds in human blood plasma. The data set is classed as in vitro ADME. Here is the method: as §3, §4, §5
Data set [9] can be described thus: Stability of compounds in rat blood plasma. It counts as in vitro ADME. How it is done: as §3, §4, §5

For the compound “Ac-Hfe-Gpg-Tic-Nle-βPhPro-[S(oxaz)L]-NMe2 [Compound P57]”, in data set [1], the “% Reduction of response to OVA” value is recorded as 52.6% and the “% Reduction of response to PPD(OVA)” value was 52.4%.
`CCCC[C@H](NC(=O)[C@@H]1Cc2ccccc2CN1C(=O)[C@H](CCCNC(=N)N)NC(=O)[C@H](CC1CCCCC1)NC(C)=O)C(=O)NCCc1ccccc1` [Compound P82, Ac-Cha-Arg-Tic-Nle-N(H)CH2CH2Ph] (Ac-[Cha]R[Tic][Nle]-NHPhenethyl): the IC50 in data set [2] stood at 18 µM; in [4] (read-out: Immunsupressive assays DR4-LN (IC50)) it was 27 µM; in data set [5] it was 14000 nM; in data set [7], 3100 nM. Also, the “% Reduction of response to OVA” value in [1] stood at 25%. Also, in data set [1], the “% Reduction of response to PPD(OVA)” value came to 5%. In addition, the “Stability (Arbitrary units) Cath B 4 h” value in [3] worked out at 105 Arbitrary units. In addition, the “Immunsupressive assays DR4-LN (Max) % Inhibition” value in [4] (maximal inhibition) is 100%. The “Stability (Arbitrary units) Mouse 6 h” value in data set [6] was 79 Arbitrary units. In addition, the “Stability (Arbitrary units) Mouse 24 h” value in data set [6] is given as 31 Arbitrary units. The “Stability (Arbitrary units) Human 6 h” value in [8] turned out to be 94 Arbitrary units. In addition, the “Stability (Arbitrary units) Human 24 h” value in data set [8] is 72 Arbitrary units. In addition, the “Stability (Arbitrary units) Rat 6 h” value in data set [9] turned out to be 65 Arbitrary units.

For orientation: IC50 means the concentration that inhibits the measured activity by half.
